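Five compound concentrations were applied to cells in 96-well plates for 48 hours; endpoints were derived by simple linear interpolation of the resulting dose-response curve. Abbreviation: GI50, concentration required for 50% inhibition of growth. The concentration for full growth arrest is given as TGI.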
Tests used:
Experiment in all cases: inhibition of tumour cell growth, NCI panel, 48 h
OVCAR-3 ovarian = test system: OVCAR-3 ovarian
KM12 colon = test system: KM12 colon
OVCAR-5 ovarian = test system: OVCAR-5 ovarian
T-47D breast = test system: T-47D breast
MOLT-4 leukemia = test system: MOLT-4 leukemia
UO-31 renal = test system: UO-31 renal
MCF7 breast = test system: MCF7 breast
MDA-MB-435 = test system: MDA-MB-435
SK-MEL-5 melanoma = test system: SK-MEL-5 melanoma
SN12C renal = test system: SN12C renal
BT-549 breast = test system: BT-549 breast
OVCAR-8 ovarian = test system: OVCAR-8 ovarian
SK-OV-3 ovarian = test system: SK-OV-3 ovarian
DU-145 prostate = test system: DU-145 prostate
LOX IMVI melanoma = test system: LOX IMVI melanoma
NCI/ADR-RES ovarian = test system: NCI/ADR-RES ovarian
MALME-3M melanoma = test system: MALME-3M melanoma
HOP-62 NSCLC = test system: HOP-62 NSCLC
COLO 205 colon = test system: COLO 205 colon
HT29 colon = test system: HT29 colon
NCI-H460 lung = test system: NCI-H460 lung
RPMI-8226 leukemia = test system: RPMI-8226 leukemia
HCT-15 colon = test system: HCT-15 colon
NCI-H522 lung = test system: NCI-H522 lung
SK-MEL-2 melanoma = test system: SK-MEL-2 melanoma
ACHN renal = test system: ACHN renal
NCI-H226 lung = test system: NCI-H226 lung
MDA-MB-231 breast = test system: MDA-MB-231 breast
RXF 393 renal = test system: RXF 393 renal
TK-10 renal = test system: TK-10 renal
HL-60(TB) leukemia = test system: HL-60(TB) leukemia
SK-MEL-28 melanoma = test system: SK-MEL-28 melanoma
IGROV1 ovarian = test system: IGROV1 ovarian
HCC-2998 colon = test system: HCC-2998 colon
786-0 renal = test system: 786-0 renal
CCRF-CEM leukemia = test system: CCRF-CEM leukemia
UACC-257 melanoma = test system: UACC-257 melanoma
M14 melanoma = test system: M14 melanoma
HCT-116 colon = test system: HCT-116 colon
HOP-92 NSCLC = test system: HOP-92 NSCLC
HS 578T breast = test system: HS 578T breast
SR leukemia = test system: SR leukemia
CAKI-1 renal = test system: CAKI-1 renal
K-562 leukemia = test system: K-562 leukemia
NCI-H23 lung = test system: NCI-H23 lung
EKVX NSCLC = test system: EKVX NSCLC
A549 NSCLC = test system: A549 NSCLC
PC-3 prostate = test system: PC-3 prostate
UACC-62 melanoma = test system: UACC-62 melanoma
OVCAR-4 ovarian = test system: OVCAR-4 ovarian

Cc1cn(C2CC(F)C(CO)O2)c(=O)[nH]c1=O (stereo not given)
GI50 (OVCAR-3 ovarian): > 100 µM
TGI (OVCAR-3 ovarian): > 100 µM
GI50 (KM12 colon): > 100 µM
TGI (KM12 colon): > 100 µM
GI50 (OVCAR-5 ovarian): > 100 µM
TGI (OVCAR-5 ovarian): > 100 µM
GI50 (T-47D breast): > 100 µM
TGI (T-47D breast): > 100 µM
GI50 (MOLT-4 leukemia): > 100 µM
TGI (MOLT-4 leukemia): > 100 µM
GI50 (UO-31 renal): > 100 µM
TGI (UO-31 renal): > 100 µM
GI50 (MCF7 breast): > 100 µM
TGI (MCF7 breast): > 100 µM
GI50 (MDA-MB-435): > 100 µM
TGI (MDA-MB-435): > 100 µM
GI50 (SK-MEL-5 melanoma): > 100 µM
TGI (SK-MEL-5 melanoma): > 100 µM
GI50 (SN12C renal): > 100 µM
TGI (SN12C renal): > 100 µM
GI50 (BT-549 breast): > 100 µM
TGI (BT-549 breast): > 100 µM
GI50 (OVCAR-8 ovarian): > 100 µM
TGI (OVCAR-8 ovarian): > 100 µM
GI50 (SK-OV-3 ovarian): > 100 µM
TGI (SK-OV-3 ovarian): > 100 µM
GI50 (DU-145 prostate): > 100 µM
TGI (DU-145 prostate): > 100 µM
GI50 (LOX IMVI melanoma): > 100 µM
TGI (LOX IMVI melanoma): > 100 µM
GI50 (NCI/ADR-RES ovarian): > 100 µM
TGI (NCI/ADR-RES ovarian): > 100 µM
GI50 (MALME-3M melanoma): > 100 µM
TGI (MALME-3M melanoma): > 100 µM
GI50 (HOP-62 NSCLC): > 100 µM
TGI (HOP-62 NSCLC): > 100 µM
GI50 (COLO 205 colon): > 100 µM
TGI (COLO 205 colon): > 100 µM
GI50 (HT29 colon): 98.8 µM
TGI (HT29 colon): > 100 µM
GI50 (NCI-H460 lung): 0.963 µM
TGI (NCI-H460 lung): > 100 µM
GI50 (RPMI-8226 leukemia): > 100 µM
TGI (RPMI-8226 leukemia): > 100 µM
GI50 (HCT-15 colon): > 100 µM
TGI (HCT-15 colon): > 100 µM
GI50 (NCI-H522 lung): > 100 µM
TGI (NCI-H522 lung): > 100 µM
GI50 (SK-MEL-2 melanoma): > 100 µM
TGI (SK-MEL-2 melanoma): > 100 µM
GI50 (ACHN renal): > 100 µM
TGI (ACHN renal): > 100 µM
GI50 (NCI-H226 lung): > 100 µM
TGI (NCI-H226 lung): > 100 µM
GI50 (MDA-MB-231 breast): > 100 µM
TGI (MDA-MB-231 breast): > 100 µM
GI50 (RXF 393 renal): > 100 µM
TGI (RXF 393 renal): > 100 µM
GI50 (TK-10 renal): > 100 µM
TGI (TK-10 renal): > 100 µM
GI50 (HL-60(TB) leukemia): > 100 µM
TGI (HL-60(TB) leukemia): > 100 µM
GI50 (SK-MEL-28 melanoma): > 100 µM
TGI (SK-MEL-28 melanoma): > 100 µM
GI50 (IGROV1 ovarian): > 100 µM
TGI (IGROV1 ovarian): > 100 µM
GI50 (HCC-2998 colon): > 100 µM
TGI (HCC-2998 colon): > 100 µM
GI50 (786-0 renal): > 100 µM
TGI (786-0 renal): > 100 µM
GI50 (CCRF-CEM leukemia): > 100 µM
TGI (CCRF-CEM leukemia): > 100 µM
GI50 (UACC-257 melanoma): > 100 µM
TGI (UACC-257 melanoma): > 100 µM
GI50 (M14 melanoma): > 100 µM
TGI (M14 melanoma): > 100 µM
GI50 (HCT-116 colon): > 100 µM
TGI (HCT-116 colon): > 100 µM
GI50 (HOP-92 NSCLC): > 100 µM
TGI (HOP-92 NSCLC): > 100 µM
GI50 (HS 578T breast): > 100 µM
TGI (HS 578T breast): > 100 µM
GI50 (SR leukemia): > 100 µM
TGI (SR leukemia): > 100 µM
GI50 (CAKI-1 renal): > 100 µM
TGI (CAKI-1 renal): > 100 µM
GI50 (K-562 leukemia): > 100 µM
TGI (K-562 leukemia): > 100 µM
GI50 (NCI-H23 lung): > 100 µM
TGI (NCI-H23 lung): > 100 µM
GI50 (EKVX NSCLC): > 100 µM
TGI (EKVX NSCLC): > 100 µM
GI50 (A549 NSCLC): > 100 µM
TGI (A549 NSCLC): > 100 µM
GI50 (PC-3 prostate): > 100 µM
TGI (PC-3 prostate): > 100 µM
GI50 (UACC-62 melanoma): > 100 µM
TGI (UACC-62 melanoma): > 100 µM
GI50 (OVCAR-4 ovarian): > 100 µM
TGI (OVCAR-4 ovarian): > 100 µM

From PubChem BioAssay (NCI)
